In US9540385B2, “Pyrrolopyrimidine compounds as kinase inhibitors” (Pharmacyclics LLC, priority 2012, dated 2017):

target: T1, BTK (Homo sapiens, UniProt Q06187); assay: Btk in vitro inhibitory activity / inhibition of a panel of kinases (TR-FRET, mobility shift or radiometric filter binding); type: biochemical; conditions: kinase assay by one of methods A, B or C
T1 construct: purified from insect cells as a full-length construct containing a N-terminal 6×-His tag; His6 (N); made in house; host or cells: insect cells (baculovirus, Sf21)
Description: Btk kinase activity is determined using a time-resolved fluorescence resonance energy transfer (TR-FRET) methodology. Measurements are performed in a reaction volume of 50 μL using 96-well assay plates. Kinase enzyme, inhibitor, ATP (at the Km for the kinase), and 1 μM peptide substrate (Biotin-AVLESEEELYSSARQ-NH2) are incubated in a reaction buffer composed of 20 mM Tris, 50 mM NaCl, MgCl2 (5-25 mM depending on the kinase), MnCl2 (0-10 mM), 1 mM DTT, 0.1 mM EDTA, 0.01% bovine serum albumin, 0.005% Tween-20, and 10% DMSO at pH 7.4 for one hour. The reaction is quenched by the addition of 1.2 equivalents of EDTA (relative to divalent cation) in 25 μL of 1× Lance buffer (Perkin-Elmer). Streptavidin-APC (Perkin-Elmer) and Eu-labeled p-Tyr100 antibody (Perkin-Elmer) in 1× Lance buffer are added in a 25 μL volume to give final concentrations of 100 nM and 2.5 nM, respectively, and the mixture is allowed to incubate for one hour. The TR-FRET signal is measured on a multimode plate reader with an excitation wavelength (λEx) of 330 nm and detection wavelengths (λEm) of 615 and 665 nm. Activity is determined by the ratio of the fluorescence at 665 nm to that at 615 nm. For each compound, enzyme activity is measured at various concentrations of compound. Negative control reactions are performed in the absence of inhibitor in replicates of six, and two no-enzyme controls are used to determine baseline fluorescence levels. Inhibition constants, Ki(app), ware obtained using the program BatchKi (Kuzmic et al. (2000), Anal. Biochem. 286:45-50). IC50s are obtained according to the equation: IC50={Ki(app)/(1+[ATP]/Km^ATP)}+[E]total/2;
For all kinases, [ATP]=Km^ATP, [Btk]total=0.5 nM and [Lck]total=6 nM.
Kinase activity is measured in vitro using electrophoretic mobility shift assay. The kinase reactions are assembled in a total volume of 25 μL in 384 well plates. The reactions comprise: BTK enzyme (1 nM, N-terminal His6-tagged, recombinant, full-length, human BTK purified from baculovirus Sf21 insect cell system), inhibitor, ATP ([…] the apparent Km for the kinase), fluorescently labeled peptide substrate (1 μM, FAM-GEEPLYWSFPAKKK-NH2) in a reaction buffer composed of 100 mM HEPES, pH7.5, 5 mM MgCl2 1 mM DTT, 0.1% bovine serum albumin, 0.01% Triton X-100, and 1% DMSO. The reaction is incubated for one hour and is quenched by the addition of 45 μL of termination buffer (100 mM HEPES, pH7.5, 0.01% Triton X-100, 30 mM EDTA). The terminated reactions are analyzed using 12 channel LabChip® 3000 microfluidic detection instrument (Caliper Life Sciences). The enzymatic phosphorylation of the peptide results in a change in net charge, enabling electrophoretic separation of product from substrate peptide. As substrate and product peptides are separated, two peaks of fluorescence are observed. Change in the relative fluorescence intensity of the substrate and product peaks is the parameter measured, reflecting enzyme activity. In the presence of an inhibitor, the ratio between product and substrate is altered: the signal of the product decreases, while the signal of the substrate increases.
Activity in each sample is determined as the product to sum ratio (PSR):P/(S+P), where P is the peak height of the product peptide and S is the peak height of the substrate peptide. For each compound, enzyme activity is measured at various concentrations (12 concentrations of compound spaced by 3× dilution intervals). Negative control samples (0%-inhibition in the absence of inhibitor) and positive control samples (100%-inhibition, in the presence of 20 mM EDTA) are assembled in replicates of four and are used to calculate %-inhibition values for each inhibitor at each concentration. Percent inhibition (Pinh) is determined using following equation: […]

T1 sequence (Q06187 whole entry): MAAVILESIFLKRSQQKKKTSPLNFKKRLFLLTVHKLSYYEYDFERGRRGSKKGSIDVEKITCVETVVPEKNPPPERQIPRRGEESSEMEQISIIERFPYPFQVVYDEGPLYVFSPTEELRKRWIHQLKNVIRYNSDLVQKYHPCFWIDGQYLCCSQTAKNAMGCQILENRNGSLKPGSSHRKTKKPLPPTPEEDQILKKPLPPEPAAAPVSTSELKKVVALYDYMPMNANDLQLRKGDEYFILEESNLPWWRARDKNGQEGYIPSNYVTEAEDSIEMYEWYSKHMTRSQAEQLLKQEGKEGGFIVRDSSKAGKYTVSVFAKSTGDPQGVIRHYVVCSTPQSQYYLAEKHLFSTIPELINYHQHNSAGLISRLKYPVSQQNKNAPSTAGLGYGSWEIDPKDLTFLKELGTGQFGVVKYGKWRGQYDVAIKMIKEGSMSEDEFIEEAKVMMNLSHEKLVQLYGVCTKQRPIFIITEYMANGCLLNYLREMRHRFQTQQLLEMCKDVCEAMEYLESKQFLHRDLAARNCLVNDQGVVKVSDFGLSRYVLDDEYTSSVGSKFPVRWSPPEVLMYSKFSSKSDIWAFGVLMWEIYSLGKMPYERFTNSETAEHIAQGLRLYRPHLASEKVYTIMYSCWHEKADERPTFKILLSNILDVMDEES

IC50, < 100 nM:
Cc1c(-c2ccc(Oc3cccc(F)c3)cc2)c2c(N)ncnc2n1[C@@H]1CCCN(C(=O)/C=C/CN(C)C2CC2)C1 [Compound 76, (R,E)-1-(3-(4-amino-5-(4-(3-fluorophenoxyl)phenyl)-6-methyl-7H-pyrrolo[2,3-d]pyrimidin-7-yl)piperidin-1-yl)-4-(cyclopropyl(methyl)amino)but-2-en-1-one]
CN(C/C=C/C(=O)N1CC[C@@H](n2c(Cl)c(-c3ccc(Oc4ccccc4)cc3)c3c(N)ncnc32)C1)[C@H]1CCOC1 [Compound 56, (E)-1-((R)-3-(4-amino-6-chloro-5-(4-phenoxyphenyl)-7H-pyrrolo[2,3-d]pyrimidin-7-yl)pyrrolidin-1-yl)-4-(methyl((S)-tetrahydrofuran-3-yl)amino)but-2-en-1-one]
COc1c(-c2ccc(Oc3cccc(F)c3)cc2)c2c(N)ncnc2n1[C@@H]1CCN(C(=O)/C=C/CN(C)C2CC2)C1 [Compound 92, (R,E)-1-(3-(4-amino-5-(4-(3-fluorophenoxyl)phenyl)-6-methoxy-7H-pyrrolo[2,3-d]pyrimidin-7-yl)pyrrolidin-1-yl)-4-(cyclopropyl(methyl)amino)but-2-en-1-one]
Cc1c(-c2ccc(Cl)cc2)c2c(N)ncnc2n1-c1cccc(N(C)C(=O)/C=C/CN(C)C2CC2)c1 [Compound 48, (E)-N-(3-(4-amino-5-(4-chlorophenyl)-6-methyl-7H-pyrrolo[2,3-d]pyrimidin-7-yl)phenyl)-4-(cyclopropyl(methyl)amino)-N-methylbut-2-enamide]
C#Cc1c(-c2ccc(Oc3ccccc3)cc2)c2c(N)ncnc2n1[C@@H]1CCN(C(=O)/C=C/CN(C)C2CC2)C1 [Compound 112, (R,E)-1-(3-(4-amino-6-ethynyl-5-(4-phenoxyphenyl)-7H-pyrrolo[2,3-d]pyrimidin-7-yl)pyrrolidin-1-yl)-4-(cyclopropyl(methyl)amino)but-2-en-1-one]
CN(C/C=C/C(=O)N1CC[C@@H](n2c(C#N)c(-c3ccc(Oc4ccccc4)cc3)c3c(N)ncnc32)C1)[C@@H]1CCOC1 [Compound 107, 4-amino-7-((R)-1-((E)-4-(methyl((R)-tetrahydrofuran-3-yl)amino)but-2-enoyl)pyrrolidin-3-yl)-5-(4-phenoxyphenyl)-7H-pyrrolo[2,3-d]pyrimidine-6-carbonitrile]
COCCN(C)C/C=C/C(=O)N1CC[C@@H](n2c(C3CC3)c(-c3ccc(Oc4ccccc4)cc3)c3c(N)ncnc32)C1 [Compound 96, (R,E)-1-(3-(4-amino-6-cyclopropyl-5-(4-phenoxyphenyl)-7H-pyrrolo[2,3-d]pyrimidin-7-yl)pyrrolidin-1-yl)-4-((2-methoxyethyl)(methyl)amino)but-2-en-1-one]
CN(C/C=C/C(=O)N1CC[C@@H](n2c(C#N)c(-c3ccc(Oc4cccc(F)c4)cc3)c3c(N)ncnc32)C1)C1CC1 [Compound 109, (R,E)-4-amino-7-(1-(4-(cyclopropyl(methyl)amino)but-2-enoyl)pyrrolidin-3-yl)-5-(4-(3-fluorophenoxyl)phenyl)-7H-pyrrolo[2,3-d]pyrimidine-6-carbonitrile]
Cc1c(-c2ccc(OCc3cnn[nH]3)cc2)c2c(N)ncnc2n1[C@@H]1CCN(C(=O)/C=C/CN(C)C2CC2)C1 [Compound 86, (R,E)-1-(3-(5-(4-((1H-1,2,3-triazol-5-yl)methoxy)phenyl)-4-amino-6-methyl-7H-pyrrolo[2,3-d]pyrimidin-7-yl)pyrrolidin-1-yl)-4-(cyclopropyl(methyl)amino)but-2-en-1-one]
CN(C/C=C/C(=O)N1CC[C@@H](n2c(C3CC3)c(-c3ccc(Oc4ccccc4)cc3)c3c(N)ncnc32)C1)[C@H]1CCOC1 [Compound 95, (E)-1-((R)-3-(4-amino-6-cyclopropyl-5-(4-phenoxyphenyl)-7H-pyrrolo[2,3-d]pyrimidin-7-yl)pyrrolidin-1-yl)-4-(methyl((S)-tetrahydrofuran-3-yl)amino)but-2-en-1-one]
